Values quoted from earlier work, collected in patent publication US20230364009A1, “Implantable Medical Device for the Delivery of an Antipsychotic” (Celanese EVA Performance Polymers LLC, priority 2022, published 2023).

Experiments:
[1] = system: haloperidol-sensitive sigma site
β1 adrenergic receptors = β1 adrenergic receptors (Homo sapiens, UniProt P08588)
[2] = biological target: T1, serotonin 5HT1A receptors (Homo sapiens, UniProt P08908)
T1 sequence (P08908 1-422): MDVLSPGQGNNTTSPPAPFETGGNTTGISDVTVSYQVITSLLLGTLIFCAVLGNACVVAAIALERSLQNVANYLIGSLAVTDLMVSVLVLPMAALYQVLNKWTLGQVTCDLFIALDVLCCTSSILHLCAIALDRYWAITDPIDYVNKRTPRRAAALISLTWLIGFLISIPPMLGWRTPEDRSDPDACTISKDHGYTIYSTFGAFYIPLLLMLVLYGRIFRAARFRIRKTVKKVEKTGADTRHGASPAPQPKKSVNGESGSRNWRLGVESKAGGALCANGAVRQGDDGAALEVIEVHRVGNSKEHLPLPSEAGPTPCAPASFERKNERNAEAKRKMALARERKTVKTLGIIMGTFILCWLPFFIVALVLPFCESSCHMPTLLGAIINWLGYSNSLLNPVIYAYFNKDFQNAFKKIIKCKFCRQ

[3] = biological target: dopamine Type 2 (D2) receptors (Homo sapiens, UniProt P14416)
dopamine Type 2 (D2) receptors, sequence (P14416 whole entry): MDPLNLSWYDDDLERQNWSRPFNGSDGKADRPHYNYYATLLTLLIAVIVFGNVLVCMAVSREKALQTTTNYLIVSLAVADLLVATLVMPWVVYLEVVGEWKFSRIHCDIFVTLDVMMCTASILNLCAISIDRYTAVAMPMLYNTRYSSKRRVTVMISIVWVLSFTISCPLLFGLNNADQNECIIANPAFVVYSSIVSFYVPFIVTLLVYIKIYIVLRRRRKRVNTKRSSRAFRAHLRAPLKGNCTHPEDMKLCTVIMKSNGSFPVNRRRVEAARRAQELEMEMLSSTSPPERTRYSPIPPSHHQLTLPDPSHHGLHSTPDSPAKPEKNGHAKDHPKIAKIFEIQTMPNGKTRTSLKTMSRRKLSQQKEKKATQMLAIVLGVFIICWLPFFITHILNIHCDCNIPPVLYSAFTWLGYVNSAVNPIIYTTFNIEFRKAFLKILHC

dopamine D1 = dopamine D1 (Homo sapiens, UniProt P21728)
dopamine D1, sequence (P21728 whole entry): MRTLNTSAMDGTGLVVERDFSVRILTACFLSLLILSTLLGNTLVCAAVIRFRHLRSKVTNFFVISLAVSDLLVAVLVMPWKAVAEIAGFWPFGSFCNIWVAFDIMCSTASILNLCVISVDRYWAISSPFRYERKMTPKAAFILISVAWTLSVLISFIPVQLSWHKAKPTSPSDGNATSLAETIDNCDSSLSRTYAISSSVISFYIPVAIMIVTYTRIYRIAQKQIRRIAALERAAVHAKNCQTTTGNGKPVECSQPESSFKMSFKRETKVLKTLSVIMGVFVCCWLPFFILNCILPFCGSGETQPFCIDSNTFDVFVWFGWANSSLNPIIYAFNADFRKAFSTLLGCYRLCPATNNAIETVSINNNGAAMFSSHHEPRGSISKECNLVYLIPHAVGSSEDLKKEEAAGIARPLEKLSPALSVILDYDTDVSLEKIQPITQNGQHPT

[4] = biological target: serotonin 5HT1D receptors (Homo sapiens, UniProt P28221)
serotonin 5HT1D receptors, sequence (P28221 whole entry): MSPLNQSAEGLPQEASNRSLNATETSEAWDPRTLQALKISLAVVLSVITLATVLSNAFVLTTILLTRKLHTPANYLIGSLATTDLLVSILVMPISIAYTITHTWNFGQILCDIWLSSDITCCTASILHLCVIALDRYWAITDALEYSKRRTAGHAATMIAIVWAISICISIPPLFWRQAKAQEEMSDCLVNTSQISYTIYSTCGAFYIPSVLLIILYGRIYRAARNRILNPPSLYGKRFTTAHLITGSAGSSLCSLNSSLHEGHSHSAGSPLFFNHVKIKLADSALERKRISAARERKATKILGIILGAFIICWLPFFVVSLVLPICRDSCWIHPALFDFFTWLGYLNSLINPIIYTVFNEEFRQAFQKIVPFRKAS

β2 adrenergic receptors = β2 adrenergic receptors (Homo sapiens, UniProt P07550)
β2 adrenergic receptors, sequence (P07550 whole entry): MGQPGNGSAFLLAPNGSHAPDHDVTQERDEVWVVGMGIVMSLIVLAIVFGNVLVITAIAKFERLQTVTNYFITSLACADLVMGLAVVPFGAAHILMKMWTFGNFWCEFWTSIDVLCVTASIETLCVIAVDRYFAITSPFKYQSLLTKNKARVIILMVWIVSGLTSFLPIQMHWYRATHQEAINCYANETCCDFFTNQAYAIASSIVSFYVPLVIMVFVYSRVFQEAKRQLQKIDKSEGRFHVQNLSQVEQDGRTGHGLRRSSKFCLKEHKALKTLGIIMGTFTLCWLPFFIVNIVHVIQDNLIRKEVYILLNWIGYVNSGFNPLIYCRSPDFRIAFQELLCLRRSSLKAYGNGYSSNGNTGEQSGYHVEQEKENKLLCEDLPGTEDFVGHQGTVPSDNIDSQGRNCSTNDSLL

[5] = biological target: T2, serotonin 5HT1c receptors (Homo sapiens, UniProt P28335)
T2 sequence (P28335 33-458): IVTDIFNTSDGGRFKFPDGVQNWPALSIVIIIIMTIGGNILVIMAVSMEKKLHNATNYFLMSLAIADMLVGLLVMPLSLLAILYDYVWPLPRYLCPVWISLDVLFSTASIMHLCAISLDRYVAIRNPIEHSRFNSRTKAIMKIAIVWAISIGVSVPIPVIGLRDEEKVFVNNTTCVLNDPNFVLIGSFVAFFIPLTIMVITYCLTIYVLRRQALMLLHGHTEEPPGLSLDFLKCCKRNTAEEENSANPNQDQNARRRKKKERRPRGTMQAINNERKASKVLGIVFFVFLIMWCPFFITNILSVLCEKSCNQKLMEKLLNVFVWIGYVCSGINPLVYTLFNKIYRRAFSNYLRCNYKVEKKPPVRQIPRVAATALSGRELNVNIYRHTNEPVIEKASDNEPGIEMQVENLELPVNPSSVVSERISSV

β1 adrenergic receptors, sequence (P08588 whole entry): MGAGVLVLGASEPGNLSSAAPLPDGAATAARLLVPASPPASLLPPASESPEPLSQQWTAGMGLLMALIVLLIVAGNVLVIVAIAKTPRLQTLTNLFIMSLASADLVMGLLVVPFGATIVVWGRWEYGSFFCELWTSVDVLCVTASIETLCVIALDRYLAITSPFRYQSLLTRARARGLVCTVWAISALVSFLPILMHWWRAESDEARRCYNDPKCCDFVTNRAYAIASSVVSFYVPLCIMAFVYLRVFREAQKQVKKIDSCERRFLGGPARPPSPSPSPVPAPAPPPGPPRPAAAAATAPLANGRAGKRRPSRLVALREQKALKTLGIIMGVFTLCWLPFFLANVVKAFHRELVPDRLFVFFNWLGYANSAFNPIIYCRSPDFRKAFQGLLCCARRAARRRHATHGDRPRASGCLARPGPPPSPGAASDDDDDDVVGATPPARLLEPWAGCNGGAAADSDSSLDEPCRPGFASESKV

## Cc1nc2n(c(=O)c1CCN1CCC(c3noc4cc(F)ccc34)CC1)CCCC2 [Risperidone, risperidone]
[1]
  affinity: weak affinity
β1 adrenergic receptors
  affinity: no affinity
[2]
  affinity: low to moderate affinity
[3]
  affinity: high affinity
Dopamine D1
  affinity: weak affinity
α2 adrenergic receptors
  affinity: high affinity
α1 adrenergic receptors
  affinity: high affinity
[4]
  affinity: low to moderate affinity
β2 adrenergic receptors
  affinity: no affinity
[5]
  affinity: low to moderate affinity
